As usually defined, the IC50 is the concentration at which inhibition is half-maximal.

Each structure is given as a SMILES string. Structures can show the parent of a compound that is named as a salt. Where only a bound is given, the exact number is not on record here.

Chain of BCL-XL (Q07817 other isoform, or with tags, fused parts or gaps): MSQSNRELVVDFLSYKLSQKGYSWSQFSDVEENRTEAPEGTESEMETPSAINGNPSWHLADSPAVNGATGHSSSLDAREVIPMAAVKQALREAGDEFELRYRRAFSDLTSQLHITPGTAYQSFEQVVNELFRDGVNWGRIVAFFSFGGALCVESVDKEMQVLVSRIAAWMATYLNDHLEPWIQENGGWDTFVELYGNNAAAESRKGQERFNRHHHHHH

This test concerns the target BCL-XL (Homo sapiens (Human), UniProt Q07817). Put plainly: Protein-protein interaction assay BCL-XL/Bad BH3 peptide (BCL-XL assay, TR-FRET). The format is binding. Conditions: His-BCL-XL / Bad BH3 peptide, median. As to the method: Assay 2 Protein-Protein Interaction Assay: BCL-XL/Bad BH3 Peptide (BCL-XL Assay)
The dose-dependent inhibition by the compounds described in this invention of the interaction between BCL-XL and the BH3 domain of Bad (both human) was determined using a steady state binding competition assay with time-resolved fluorescence energy transfer (TR-FRET) readout. For that purpose BCL-XL (amino acids 1-212, C-terminal fused to a hexahistidine (6×His) tag (SEQ ID 3) and a synthetic Bad BH3-derived peptide of sequence Biotin-PEG2-PEG2-NLWAAQRYGRELRR-Nle-SDEFVDSFKK-amide (SEQ ID 4) served as protein receptor and tracer ligand respectively. The recombinant BCL-XL protein (expressed in E. coli) was purchased from BPS Bioscience (San Diego, Calif., USA). The Bad BH3-derived peptide can be obtained from e.g. Biosyntan (Berlin, Germany).
In the assay 11 different concentrations of each compound (0.1 nM, 0.33 nM, 1.1 nM, 3.8 nM, 13 nM, 44 nM, 0.15 μM, 0.51 μM, 1.7 μM, 5.9 μM and 20 μM) were typically measured as duplicates in the same microtiter plate. For that, 100-fold concentrated DMSO solutions were prepared by serial dilutions (1:3.4) of a 2 mM stock solution in a clear, 384-well microtiter plate (Greiner Bio-One, Frickenhausen, Germany). From there, 50 nl were transferred in a dark test plate (Greiner Bio-One, Frickenhausen, Germany). The assay was initiated by addition of 2 μl of a 2.5-fold concentrated His-BCL-XL solution (usually for a 1 nM end concentration in 5 μl reaction volume) in aqueous assay buffer [50 mM Tris/HCl pH 7, 100 mM sodium chloride (NaCl), 50 mM potassium fluoride (KF), 0.005% Tween-20, 2 mM DTT, 0.1% bovine gamma globulin (BGG)] to the compounds in the assay plate. This was followed by a 10-minute incubation step at 22° C. for pre-equilibration of the putative complex between His-BCL-XL and the compounds. After that, 3 μl of a 1.67-fold concentrated solution (in assay buffer) consisting of Bad BH3-derived peptide (1 nM end concentration) and TR-FRET detection reagents [1.67 nM anti-His-Eu cryptate and 1.67 nM streptavidin-XL665 (both from Cisbio Bioassays, Codolet, France)], were added.
The mixture was incubated in the dark for one hour at 22° C. and then overnight at 4° C. The formation of BCL-XL/Bad complexes was determined by measuring the resonance energy transfer of the anti-His- Eu-cryptate antibody to the streptavidin-XL665 present in the reaction. For that purpose, the fluorescence emission at 620 nm and 665 nm after excitation at 330-350 nm was measured in a TR-FRET measuring instrument, for instance a Rubystar or a Pherastar (both from BMG Lab Technologies, Offenburg, Germany) or a Viewlux (Perkin-Elmer). The ratio of the emission at 665 nm and at 622 nm was used as indicator of the amount of BCL-XL/Bad complexes present.
The resulting data (ratio) were normalized, taking 0% inhibition as the mean value of control measurements (usually 32 data points) where all reagents were included. In this case 50 nl DMSO were used instead of compounds. A 100% inhibition corresponded to the mean value of control measurements (usually 32 data points) where all reagents except BCL-XL were included. IC50 values were determined by regression analysis based on a 4 parameter equation (minimum, maximum, IC50, Hill; Y=Max+(Min−Max)/(1+(X/IC50)^HiII) using the Screener Software (Genedata).
On the technique in general: TR-FRET usually uses a lanthanide donor and a delayed reading to cut background.
In turn, `CCc1c2c(nn1C)CN(CCCN1CCCC1)S(=O)(=O)CCCn1c(C(=O)O)c(CCCOc3cccc4ccccc34)c3cccc-2c31` (racemic) [Example 16, (rac)-12-Ethyl-11-methyl-1-(3-(naphthalen-1-yloxy)propyl)-8-(3-(pyrrolidin-1-yl)propyl)-5,6,9,11-tetrahydro-4H,8H-pyrazolo[3′,4′:4,5][1]thia[2,8]diazacycloundecino[6,7,8-hi]indole-2-carboxylic acid 7,7-dioxide] came in with an IC50 of over 20 µM.

In the case of `CCc1c2c(nn1C)CN(C)S(=O)(=O)CCCn1c(C(=O)O)c(CCCOc3cccc4cc(F)ccc34)c3ccc(Cl)c-2c31` (single isomer, unassigned; enantiomer 2) [Example 37, (−)-4-chloro-3-ethyl-7-{3-[(6-fluoronaphthalen-1-yl)oxy]propyl}-2,14-dimethyl-13,13-dioxo-10,11,12,13,14,15-hexahydro-2H-13lambda^6-pyrazolo[3′,4′:4,5][1,2,8]thiadiazacycloundecino-[6,7,8-hi]indole-8-carboxylic acid (Enantiomer 2)], the IC50 was determined as 18 µM.

In the case of `Cc1c2c(nn1C)CN(C1CC1)S(=O)(=O)CCCn1c(C(=O)O)c(CCCOc3cccc4ccccc34)c3ccc(Cl)c-2c31` [Example 40, (rac)-4-chloro-14-cyclopropyl-2,3-dimethyl-7-[3-(1-naphthyloxy)propyl]-11,12,14,15-tetrahydro-2H,10H-pyrazolo[3′,4′:4,5][1,2,8]thiadiazacycloundecino[6,7,8-hi]indole-8-carboxylic acid 13,13-dioxide], half-maximal inhibition (IC50) required 19 µM.

`CCc1c2c(nn1C)C(CCC1CCOCC1)N(C)S(=O)(=O)CCCn1c(C(=O)O)c(CCCOc3cccc4cc(F)ccc34)c3ccc(Cl)c-2c31` (racemic) [Example 60, (rac)-4-chloro-3-ethyl-7-{3-[(6-fluoro-1-naphthyl)oxy]propyl}-2,14-dimethyl-15-[2-(tetrahydro-2H-pyran-4-yl)ethyl]-11,12,14,15-tetrahydro-2H,10H-pyrazolo[3′,4′:4,5][1,2,8]thiadiazacycloundecino[6,7,8-hi]indole-8-carboxylic acid 13,13-dioxide (Racemate 1)] yielded a concentration for half-maximal inhibition (IC50) of over 20 µM.

Compound `Cc1c2c(nn1C)C(CCN1CCOCC1)N(C)S(=O)(=O)CCCn1c(C(=O)O)c(CCCOc3cccc4ccccc34)c3cccc-2c31` (single isomer, unassigned; enantiomer 2) [Example 46, 2,3,14-trimethyl-15-[2-(morpholin-4-yl)ethyl]-7-{3-[(naphthalen-1-yl)oxy]propyl}-13,13-dioxo-10,11,12,13,14,15-hexahydro-2H-13lambda^6-pyrazolo[3′,4′:4,5][1,2,8]thiadiazacycloundecino[6,7,8-hi]indole-8-carboxylic acid N-ethylethanamine Salt (Enantiomer 2)] gave a 50% inhibitory concentration (IC50) of over 20 µM.

`Cc1c2c(nn1C)C(CCN1CCOCC1)N(C)S(=O)(=O)CCCn1c(C(=O)O)c(CCCOc3cccc4ccccc34)c3cccc-2c31` (single isomer, unassigned; enantiomer 1) [Example 45, 2,3,14-trimethyl-15-[2-(morpholin-4-yl)ethyl]-7-{3-[(naphthalen-1-yl)oxy]propyl}-13,13-dioxo-10,11,12,13,14,15-hexahydro-2H-13lambda^6-pyrazolo[3′,4′:4,5][1,2,8]thiadiazacycloundecino[6,7,8-hi]indole-8-carboxylic acid N-ethylethanamine Salt (Enantiomer 1)]: half-maximal inhibition (IC50) required 18 µM.

As to `CCc1c2c(nn1C)C(CCC1CCOCC1)N(C)S(=O)(=O)CCCn1c(C(=O)O)c(CCCOc3cccc4cc(F)ccc34)c3ccc(Cl)c-2c31` (single isomer, unassigned; enantiomer 4) [Example 64, (−)-4-chloro-3-ethyl-7-{3-[(6-fluoronaphthalen-1-yl)oxy]propyl}-2,14-dimethyl-15-[2-(oxan-4-yl)ethyl]-13,13-dioxo-10,11,12,13,14,15-hexahydro-2H-13lambda^6-pyrazolo[3′,4′:4,5][1,2,8]thiadiazacycloundecino[6,7,8-hi]indole-8-carboxylic acid (Enantiomer 4)], the IC50 is over 20 µM.

`Cc1c2c(nn1C)CN(C1CC1)S(=O)(=O)CCCn1c(C(=O)O)c(CCCOc3cccc4cc(F)ccc34)c3ccc(Cl)c-2c31` (racemic) [Example 41, (rac)-4-chloro-14-cyclopropyl-7-{3-[(6-fluoro-1-naphthyl)oxy]propyl}-2,3-dimethyl-11,12,14,15-tetrahydro-2H,10H-pyrazolo[3′,4′:4,5][1,2,8]thiadiazacycloundecino[6,7,8-hi]indole-8-carboxylic acid 13,13-dioxide]: inhibition was half-maximal at 19 µM (IC50).

`CCc1c2c(nn1C)C(CCC1CCOCC1)N(C)S(=O)(=O)CCCn1c(C(=O)O)c(CCCOc3cccc4cc(F)ccc34)c3ccc(Cl)c-2c31` (single isomer, unassigned; enantiomer 3) [Example 63, (+)-4-chloro-3-ethyl-7-{3-[(6-fluoronaphthalen-1-yl)oxy]propyl}-2,14-dimethyl-15-[2-(oxan-4-yl)ethyl]-13,13-dioxo-10,11,12,13,14,15-hexahydro-2H-13lambda^6-pyrazolo[3′,4′:4,5][1,2,8]thiadiazacycloundecino[6,7,8-hi]indole-8-carboxylic acid (Enantiomer 3)] showed an IC50 of 19 µM.

Consider `Cc1c2c(nn1C)CN(C)S(=O)(=O)CCCn1c(C(=O)O)c(CCCOc3cccc4c3CCCC4)c3ccc(F)c-2c31` (racemic) [Example 29, (rac)-13-Fluoro-8,11,12-trimethyl-1-(3-((5,6,7,8-tetrahydronaphthalen-1-yl)oxy)propyl)-5,6,9,11-tetrahydro-4H,8H-pyrazolo[3′,4′:4,5][1]thia[2,8]diazacycloundecino[6,7,8-hi]indole-2-carboxylic acid 7,7-dioxide], for which the IC50 is over 20 µM.

The compound `CCc1c2c(nn1C)C(CCC1CCOCC1)N(C)S(=O)(=O)CCCn1c(C(=O)O)c(CCCOc3cccc4cc(F)ccc34)c3ccc(Cl)c-2c31` (single isomer, unassigned; enantiomer 2) [Example 62, (−)-4-chloro-3-ethyl-7-{3-[(6-fluoronaphthalen-1-yl)oxy]propyl}-2,14-dimethyl-15-[2-(oxan-4-yl)ethyl]-13,13-dioxo-10,11,12,13,14,15-hexahydro-2H-13lambda^6-pyrazolo[3′,4′:4,5][1,2,8]thiadiazacycloundecino[6,7,8-hi]indole-8-carboxylic acid (Enantiomer 2)] came in with an IC50 of 18 µM.

Regarding `CCc1c2c(nn1C)CNS(=O)(=O)CCCn1c(C(=O)O)c(CCCOc3cccc4ccccc34)c3cccc-2c31` (racemic) [Example 17, (rac)-12-Ethyl-11-methyl-1-(3-(naphthalen-1-yloxy)propyl)-4,5,6,8,9,11-hexahydropyrazolo[3′,4′:4,5][1,2,8]thiadiazacycloundecino[6,7,8-hi]indole-2-carboxylic acid 7,7-dioxide], the IC50 is over 20 µM.

Regarding `CCc1c2c(nn1C)CN(C)S(=O)(=O)CCCn1c(C(=O)O)c(CCCOc3cccc4c3CCC4)c3ccc(Cl)c-2c31` [Example 21, (rac)-13-Chloro-1-(3-((2,3-dihydro-1H-inden-4-yl)oxy)propyl)-12-ethyl-8,11-dimethyl-5,6,9,11-tetrahydro-4H,8H-pyrazolo[3′,4′:4,5][1]thia[2,8]diazacycloundecino[6,7,8-hi]indole-2-carboxylic acid 7,7-dioxide], the half-maximal inhibitory concentration (IC50) is over 20 µM.

Regarding `Cc1c2c(nn1C)CNS(=O)(=O)CCCn1c(C(=O)O)c(CCCOc3cccc4cc(F)ccc34)c3ccc(Cl)c-2c31` (racemic) [Example 50, (rac)-4-chloro-7-{3-[(6-fluoro-1-naphthyl)oxy]propyl}-2,3-dimethyl-11,12,14,15-tetrahydro-2H,10H-pyrazolo[3′,4′:4,5][1,2,8]thiadiazacycloundecino[6,7,8-hi]indole-8-carboxylic acid 13,13-dioxide], the half-inhibitory concentration (IC50) is over 20 µM.
